The record followed here is PubChem BioAssay AID743134 (The Scripps Research Institute Molecular Screening Center, 2013).

Calls of active or inactive are those of the source.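 The calls were made as follows: active = compound cutting LYPLA1 and LYPLA2 activity by half or more in mouse liver, kidney or brain after 5 mg/kg; inactive = the rest.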

In the experiment the target is Acyl-protein thioesterase 1 (Mus musculus) (UniProt P97823). Put plainly: APT1 inhibition after dosing, tissue ABPP readout – mouse liver, brain, kidney proteomes, fluorescence gel, in vivo study for LYPLA1/LYPLA2 inhibitor project, late-stage follow-up (AID 743134). The following applies: C57BL6 mice i.p., tissue gel-based ABPP FP-Rh, 4 h.
Chain of Acyl-protein thioesterase 1 (Mus musculus) (P97823 whole entry, looked up): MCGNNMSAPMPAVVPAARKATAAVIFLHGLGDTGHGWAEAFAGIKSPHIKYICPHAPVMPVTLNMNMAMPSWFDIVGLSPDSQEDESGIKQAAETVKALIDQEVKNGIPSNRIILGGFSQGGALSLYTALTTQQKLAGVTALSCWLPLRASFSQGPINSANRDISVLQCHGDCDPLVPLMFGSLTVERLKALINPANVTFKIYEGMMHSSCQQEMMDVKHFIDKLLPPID

As for `O=C(ON1C(=O)C2CN(C(=O)N3CCOCC3)CCN2C1=O)N1CCC(CCc2ccc(Cl)cc2)CC1` (stereo not drawn), the outcome (Brain soluble proteome) was inactive. Also, the outcome by setting is: (Kidney soluble proteome) “active”; (Liver soluble proteome) “active”.
